Tests used:
HDAC = details: cited from earlier work
ribosomal S6 subunit = assay: Western blotting of S6 phosphorylation in synchronized hepatocytes; assay type: cell-based, rat; details: 50 μM
Protocol: (§1) Total cell extracts were prepared as described previously (Papeleu et al. J Hepatol 39: 374-382, 2003) and proteins (25 or 50 μg per lane) were separated electrophoretically by SDS-PAGE and electroblotted onto nitrocellulose membranes (Amersham Pharmacia Biotech, Buckinghamshire, UK). Equal sample loading was verified by immersion of the membranes in Ponceau S. Unspecific binding sites were blocked with 5% skim milk/Tris-buffered saline. Incubations with primary antibodies were performed overnight at 4° C. under gentle shaking. Proteins were detected using the ECL detection system (Amersham Pharmacia Biotech, Buckinghamshire, UK) according to the manufacturer's recommendations.
Early cell cycle events can be triggered by distinct signalling pathways, activated by EGF, namely: the MEK/ERK, the mTOR/p70S6k, and the Pak1 pathways. Eventually, they all converge on cyclin D1 and play thus an essential role in the regulation of this critical cell cycle protein. […] This was done by culturing the hepatocytes in the absence of EGF for 48 hours, consequently stimulating them with EGF and exposing them to 50 μM 4-Me2N-BAVAH for 0.5, 1 and 3 hours before harvesting. Shortly after stimulation of synchronized primary hepatocytes with EGF, a rapid and sustained phosphorylation of ERK1/2 was observed (FIG. 20A). […]

Pak1 = assay: Western blotting of Pak1 in primary rat hepatocytes; assay type: cell-based; details: 50 μM, sustained treatment, EGF-stimulated
Text: Male outbred Sprague-Dawley rats (200-300 g, Iffa Credo, Brussels, Belgium) were kept under controlled environmental conditions (12-hr light-dark cycle) and fed a standard diet (Animafabo A04, water ad libitum). Hepatocytes were isolated by a two-step collagenase perfusion as described (De Smet et al. In ‘Methods in Molecular Biology, Vol. 107: Cytochrome P450 Protocols’, Philips I R and Shephard E A, eds., pp 295-301, Humana Press, Totowa, 1998). Cell liability was >90% as determined by trypan blue exclusion. Cells (0.4×10^5 cells/cm^2) were plated in MEM/M199 (3:1), containing BSA (1 mg/ml), bovine insulin (10 μg/ml), L-glutamine (2 mM), FBS (10% v/v) and antibiotics (7.3 IU/ml benzyl penicillin, 50 μg/ml streptomycin sulphate, 50 μg/ml kanamycin monosulphstep and 10 μg/ml sodium ampicillin). Four hours after plating, serum-containing medium was removed and fresh serum-free medium was added to the cultures. Culture medium was refreshed daily. […]
Total cell extracts were prepared as described previously (Papeleu et al. J Hepatol 39: 374-382, 2003) and proteins (25 or 50 μg per lane) were separated electrophoretically by SDS-PAGE and electroblotted onto nitrocellulose membranes (Amersham Pharmacia Biotech, Buckinghamshire, UK). […] Proteins were detected using the ECL detection system (Amersham Pharmacia Biotech, Buckinghamshire, UK) according to the manufacturer's recommendations.

caspase-3, Bid and Bax = assay: Western blotting of caspase-3 activation, Bid and Bax in primary rat hepatocytes; assay type: cell-based
Text: (§2) Male outbred Sprague-Dawley rats (200-300 g, Iffa Credo, Brussels, Belgium) were kept under controlled environmental conditions (12-hr light-dark cycle) and fed a standard diet (Animafabo A04, water ad libitum). Hepatocytes were isolated by a two-step collagenase perfusion as described (De Smet et al. In ‘Methods in Molecular Biology, Vol. 107: Cytochrome P450 Protocols’, Philips I R and Shephard E A, eds., pp 295-301, Humana Press, Totowa, 1998). Cell liability was >90% as determined by trypan blue exclusion. Cells (0.4×10^5 cells/cm^2) were plated in MEM/M199 (3:1), containing BSA (1 mg/ml), bovine insulin (10 μg/ml), L-glutamine (2 mM), FBS (10% v/v) and antibiotics (7.3 IU/ml benzyl penicillin, 50 μg/ml streptomycin sulphate, 50 μg/ml kanamycin monosulphstep and 10 μg/ml sodium ampicillin). Four hours after plating, serum-containing medium was removed and fresh serum-free medium was added to the cultures. Culture medium was refreshed daily. EGF (50 ng/ml) was added 4 hours after plating. A 100 mM stock solution of 4-Me2N-BAVAH was prepared in ethanol.
as §1

primary rat hepatocytes = assay: DNA synthesis ([methyl-3H]-thymidine) in EGF-stimulated primary rat hepatocytes; assay type: cell-based
Text: as §2
Hepatocytes were cultured in triplicate in 35 mm tissue culture dishes (Beckton Dickinson, UK). Cells were incubated with [methyl-^3H]-thymidine (25 Ci/mmol (2 μCi/ml)) for 24 hours prior to harvesting. Its incorporation was measured by liquid scintillation counting (Wallac 1410; counting efficiency: 67.5%) after trichloroacetic acid precipitation of the DNA. Results are expressed as counts per minute (cpm) per μg of total cellular proteins. Protein concentration of the samples was determined according to the Bradford procedure (Bradford. Anal Biochem 72: 248-254, 1976), using BSA as a standard.

Cx26 = Cx26 expression and localization (immunoblotting, immunocytochemistry) in rat hepatocytes; assay type: cell-based; details: 1 μM TSA
Protocol: (§3) In all conditions, the hepatocytes were cultivated as a monolayer configuration, and samples were taken at days 1, 4 and 7 (D1, D4, D7) of the cultivation time.
(§4) Proteins (25 or 50 μg) were resolved on SDS-PAGE (7.5, 10 or 12%) and blotted afterwards onto nitrocellulose membranes. After blocking with non-fatty milk, membranes were incubated with appropriate concentrations of primary and secondary antibodies (HRP labeled). Proteins were detected using the ECL detection system (Amersham Biosciences). Primary antibodies: Cx26 (Zymed, 1/250), Cx32 (Sigma, 1/500), Cx43 (Zymed, 1/100).
(§5) Hepatocytes were fixed with cold ethanol, peremeabilised with Triton X-100 (Sigma) and blocked with non-fatty milk. Following incubation with appropriate concentrations of primary and secondary antibodies (FITC or TRITC labeled), samples were mounted with DAPI-containing Vectashield (Vector Laboratories). Detection was performed by fluorescence microscopy (Leica DMR/XA).

Cx43 = Cx43 expression and localization (immunoblotting, immunocytochemistry) in rat hepatocytes; assay type: cell-based; details: 1 μM TSA
Protocol: as §3, §4, §5

GSTA = GSTA iso-enzyme activity in cultured rat hepatocytes; assay type: cell-based; details: TSA treatment
Text: Hepatocytes were isolated from male Sprague-Dawley rats by a two-step collagenase perfusion as described (De Smet et al. In ‘Methods in Molecular Biology, Vol. 107: Cytochrome P450 Protocols’, Philips IR and Shephard E A, eds., p.p 295-301, Humana Press, Totowa, 1998). Hepatocytes were cultivated in monolayer cultures with Willam's E Medium (WE) for 7 days. […] The maintenance of differentiation characteristics was studied after 2, 4, and 7 days (D2, D4, D7) of culture.
In order to investigate Phase II biotransformation, total cytosolic glutathione S-transferase (GST) activity and activities of individual GSTA, GSTP, and GSTM iso-enzymes were measured using standard techniques known in the art. (i.e., measuring conjugation of reduced glutathione with 1-chloro-2,4-dinitrobenzene for total GST; measuring conjugation of reduced glutathione with 7-chloro-4-nitrobenzo-2-oxa-1,3-diazole for GSTA activity; measuring conjugation of reduced glutathione with ethacrynic acid for GSTP activity; and measuring conjugation of reduced glutathione with 1,2-dichloro-4-nitrobenzene for GSTM activity).

[1] = test system: gap junctional intercellular communication; assay: GJIC scrape loading/dye transfer assay; assay type: cell-based, rat; details: 1 μM TSA; from D4 on
Protocol: as §3
Scrape loading/dye transfer assay was performed as described by el-Fouly et al., 1987: 422-430. In brief, hepatocytes were scraped in the presence of 0.05% m/V Lucifer Yellow and incubated for 5 minutes at 37° C. The dye was then removed, cells were rinsed twice with PBS and fixed with 4% m/V paraformaldehyde. Evaluation was performed by fluorescence microscopy. The distance traveled by Lucifer Yellow from the scrape was used as a parameter to evaluate GJIC functionality.

## CN(C)c1ccc(C(=O)NCCCCC(=O)NO)cc1 [4-Me2N-BAVAH, 5-(4-dimethylaminobenzoyl)-aminovaleric acid hydroxamide]
HDAC
  HDAC inhibition, concentration range: micromolar range
Ribosomal S6 subunit
  S6 phosphorylation: only a minor increase
Pak1
  cellular levels of Pak1: decrease in the cellular levels of Pak1
caspase-3, Bid and Bax; 50 μM
  expression of pro-apoptotic proteins Bid and Bax: decreased the expression
caspase-3, Bid and Bax; 24 and 48 hours of culture
  cleavage of pro-caspase-3 into active p18 fragments: significantly lower
caspase-3, Bid and Bax; after 72 hours of treatment
  cleavage of pro-caspase-3 into active p18 fragments: completely prevented
Primary rat hepatocytes; 50 μM added at 24 hours or 48 hours
  inhibitory effect on DNA replication: less or no inhibitory effect
Primary rat hepatocytes; 50 μM from time of plating
  EGF-induced DNA synthesis: totally suppressed
Primary rat hepatocytes; 50 μM maintained until 48 hours
  DNA synthesis: no DNA synthesis occurred
Primary rat hepatocytes; 50 μM, withdrawal at 24 hours of culture, measured at 72 hours
  reduction in 3H-thymidine incorporation compared to untreated control cultures: 50.9±1.6%

## CC(C=CC(=O)NO)=CC(C)C(=O)c1ccc(N(C)C)cc1 (stereo not shown) [TSA]
Cx26
  expression of Cx26: decreases the expression
  localization of Cx26: perinuclear localization
Cx43
  expression of Cx43: induces the expressions
  localization of Cx43: cytosolic localization
GSTA
  activity of GSTA iso-enzyme: substantially unaffected
[1]
  GJIC activity: increases GJIC activity

Source: patent US20090130064A1, “DIFFERENTIATION OF STEM CELLS AND STABILIZATION OF PHENOTYPICAL PROPERTIES OF PRIMARY CELLS” (priority 2004, published 2009)
